The record followed here is patent US20250171437A1 (Agios Pharmaceuticals,Inc., priority 2022, published 2025).

In the assay the target is T1, human PAH with the R408W mutation (A375 R408W cells) (Homo sapiens, UniProt P00439, R408W).
T1 construct: expressed in transfected cells
T1 sequence (P00439 1-452 R408W): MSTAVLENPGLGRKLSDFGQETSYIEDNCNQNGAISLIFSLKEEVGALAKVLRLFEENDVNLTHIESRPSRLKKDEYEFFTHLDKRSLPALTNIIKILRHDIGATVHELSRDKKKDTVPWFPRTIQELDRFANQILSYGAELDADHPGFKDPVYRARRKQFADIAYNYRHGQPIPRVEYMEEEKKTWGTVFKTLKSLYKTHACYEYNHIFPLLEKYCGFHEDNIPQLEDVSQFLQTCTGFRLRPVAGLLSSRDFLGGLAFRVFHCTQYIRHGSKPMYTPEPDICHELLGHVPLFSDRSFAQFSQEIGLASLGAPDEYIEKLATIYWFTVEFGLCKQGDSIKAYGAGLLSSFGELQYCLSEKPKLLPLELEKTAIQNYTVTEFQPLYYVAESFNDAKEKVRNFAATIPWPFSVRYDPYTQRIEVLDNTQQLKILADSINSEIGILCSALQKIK
Description: Cell Based Phenylalanine Flux Assay. The settings on record: A375 R408W cells; 24 hrs with compound, then 20 μM sepiapterin and 800 μM 13C9,15N-Phenylalanine for 4 hours; 13C-Tyrosine by LC-MS; average where tested multiple times. In outline: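 LC-MS quantitation of 13C-tyrosine in media gave AC50 values. Stable A375 R408W PAH cells were preincubated 24 h with compound, then fed 800 μM labelled Phe plus 20 μM sepiapterin for 4 h. Dose curves were 10-point, tested in duplicate, averaged over repeat runs.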
Take `O=C(c1cnn2cc(N3CCOCC3)ccc12)N1CCc2[nH]cnc2[C@H]1c1nc2c(F)cccc2o1` [Example 504, (S)-(4-(4-fluorobenzo[d]oxazol-2-yl)-6,7-dihydro-1H-imidazo[4,5-c]pyridin-5(4H)-yl)(6-morpholinopyrazolo[1,5-a]pyridin-3-yl)methanone]: the AC50 is 0.5 to 1 µM. As for `O=C(c1cnn2cc(N3CCC4(CC3)CC4)ccc12)N1CCc2[nH]cnc2[C@H]1c1nc2c(F)cccc2o1` [Example 505, (S)-(6-(6-azaspiro[2.5]octan-6-yl)pyrazolo[1,5-a]pyridin-3-yl)(4-(4-fluorobenzo[d]oxazol-2-yl)-6,7-dihydro-1H-imidazo[4,5-c]pyridin-5(4H)-yl)methanone], the AC50 fell in the range of 0.5 to 1 µM. Regarding `O=C(c1cnn2cc(N3CCC4(CC3)CC4)ccc12)N1CCc2[nH]cnc2[C@@H]1c1nc2c(F)cccc2o1` [Example 506, (R)-(6-(6-azaspiro[2.5]octan-6-yl)pyrazolo[1,5-a]pyridin-3-yl)(4-(4-fluorobenzo[d]oxazol-2-yl)-6,7-dihydro-1H-imidazo[4,5-c]pyridin-5(4H)-yl)methanone], the AC50 is 1 to 5 µM. In the case of `CC(C)(O)C1CCN(c2ccc3c(C(=O)N4CCc5[nH]cnc5[C@H]4c4nc5c(F)cccc5o4)cnn3c2)CC1` [Example 507, (S)-(4-(4-fluorobenzo[d]oxazol-2-yl)-6,7-dihydro-1H-imidazo[4,5-c]pyridin-5(4H)-yl)(6-(4-(2-hydroxypropan-2-yl)piperidin-1-yl)pyrazolo[1,5-a]pyridin-3-yl)methanone], the AC50 lay in the range of 0.5 to 1 µM. Take `CC(C)(O)C1CCN(c2ccc3c(C(=O)N4CCc5[nH]cnc5[C@@H]4c4nc5c(F)cccc5o4)cnn3c2)CC1` [Example 508, (R)-(4-(4-fluorobenzo[d]oxazol-2-yl)-6,7-dihydro-1H-imidazo[4,5-c]pyridin-5(4H)-yl)(6-(4-(2-hydroxypropan-2-yl)piperidin-1-yl)pyrazolo[1,5-a]pyridin-3-yl)methanone]: the half-maximal activity concentration (AC50) was no less than 5 µM. The result for `Cc1cccc2oc([C@@H]3c4nc[nH]c4CCN3C(=O)c3cnco3)nc12` [Example 509, (S)-(4-(4-methylbenzo[d]oxazol-2-yl)-6,7-dihydro-1H-imidazo[4,5-c]pyridin-5(4H)-yl)(oxazol-5-yl)methanone] reads no more than 0.5 µM; that for `Cc1cccc2oc([C@H]3c4nc[nH]c4CCN3C(=O)c3cnco3)nc12` [Example 510, (R)-(4-(4-methylbenzo[d]oxazol-2-yl)-6,7-dihydro-1H-imidazo[4,5-c]pyridin-5(4H)-yl)(oxazol-5-yl)methanone], 1 to 5 µM.

On to `Cc1cccc2oc([C@@H]3c4nc[nH]c4CCN3C(=O)c3cnc(C(C)(C)O)o3)nc12` [Example 511, (S)-(2-(2-hydroxypropan-2-yl)oxazol-5-yl)(4-(4-methylbenzo[d]oxazol-2-yl)-6,7-dihydro-1H-imidazo[4,5-c]pyridin-5(4H)-yl)methanone], for which the AC50 fell in the range of 0.5 to 1 µM. Turning to `Cc1cccc2oc([C@H]3c4nc[nH]c4CCN3C(=O)c3cnc(C(C)(C)O)o3)nc12` [Example 512, (R)-(2-(2-hydroxypropan-2-yl)oxazol-5-yl)(4-(4-methylbenzo[d]oxazol-2-yl)-6,7-dihydro-1H-imidazo[4,5-c]pyridin-5(4H)-yl)methanone], the AC50 was in the range of 1 to 5 µM.

As to `O=C(c1ccnn1C(F)F)N1CCc2[nH]cnc2[C@H]1c1nc2ccc(F)c(F)c2o1` [Example 513, (S)-(4-(6,7-difluorobenzo[d]oxazol-2-yl)-6,7-dihydro-1H-imidazo[4,5-c]pyridin-5(4H)-yl)(1-(difluoromethyl)-1H-pyrazol-5-yl)methanone], the AC50 lay within 0.5 to 1 µM. Turning to `O=C(c1ccnn1C(F)F)N1CCc2[nH]cnc2[C@@H]1c1nc2ccc(F)c(F)c2o1` [Example 514, (R)-(4-(6,7-difluorobenzo[d]oxazol-2-yl)-6,7-dihydro-1H-imidazo[4,5-c]pyridin-5(4H)-yl)(1-(difluoromethyl)-1H-pyrazol-5-yl)methanone], the concentration at half-maximal activity (AC50) fell in the range of 1 to 5 µM. For the compound `Cn1cc(-c2nnc(C(=O)N3CCc4[nH]cnc4[C@H]3c3nc4ccc(F)c(F)c4o3)o2)cn1` [Example 515, (S)-(4-(6,7-difluorobenzo[d]oxazol-2-yl)-6,7-dihydro-1H-imidazo[4,5-c]pyridin-5(4H)-yl)(5-(1-methyl-1H-pyrazol-4-yl)-1,3,4-oxadiazol-2-yl)methanone], the AC50 was in the range of 0.5 to 1 µM.

On to `Cn1cc(-c2nnc(C(=O)N3CCc4[nH]cnc4[C@@H]3c3nc4ccc(F)c(F)c4o3)o2)cn1` [Example 516, (R)-(4-(6,7-difluorobenzo[d]oxazol-2-yl)-6,7-dihydro-1H-imidazo[4,5-c]pyridin-5(4H)-yl)(5-(1-methyl-1H-pyrazol-4-yl)-1,3,4-oxadiazol-2-yl)methanone], for which the AC50 is 1 to 5 µM. Take `Cn1cc(-c2nnc(C(=O)N3CCc4[nH]cnc4[C@@H]3c3nc4c(F)ccc(F)c4o3)o2)cn1` [Example 517, (R)-(4-(4,7-difluorobenzo[d]oxazol-2-yl)-6,7-dihydro-1H-imidazo[4,5-c]pyridin-5(4H)-yl)(5-(1-methyl-1H-pyrazol-4-yl)-1,3,4-oxadiazol-2-yl)methanone]: the AC50 lay within 1 to 5 µM. The figure for `Cn1cc(-c2nnc(C(=O)N3CCc4[nH]cnc4[C@H]3c3nc4c(F)ccc(F)c4o3)o2)cn1` [Example 518, (S)-(4-(4,7-difluorobenzo[d]oxazol-2-yl)-6,7-dihydro-1H-imidazo[4,5-c]pyridin-5(4H)-yl)(5-(1-methyl-1H-pyrazol-4-yl)-1,3,4-oxadiazol-2-yl)methanone] is no more than 0.5 µM; for `O=C(c1nnc(-c2ccccn2)o1)N1CCc2[nH]cnc2[C@@H]1c1nc2c(F)ccc(F)c2o1` [Example 519, (R)-(4-(4,7-difluorobenzo[d]oxazol-2-yl)-6,7-dihydro-1H-imidazo[4,5-c]pyridin-5(4H)-yl)(5-(pyridin-2-yl)-1,3,4-oxadiazol-2-yl)methanone] it is 0.5 to 1 µM. As for `O=C(c1nnc(-c2ccccn2)o1)N1CCc2[nH]cnc2[C@H]1c1nc2c(F)ccc(F)c2o1` [Example 520, (S)-(4-(4,7-difluorobenzo[d]oxazol-2-yl)-6,7-dihydro-1H-imidazo[4,5-c]pyridin-5(4H)-yl)(5-(pyridin-2-yl)-1,3,4-oxadiazol-2-yl)methanone], the AC50 was no more than 0.5 µM.

Consider `Cn1cc(-c2nnc(C(=O)N3CCc4[nH]cnc4[C@@H]3c3nc4c(F)cc(F)cc4o3)o2)cn1` [Example 521, (R)-(4-(4,6-difluorobenzo[d]oxazol-2-yl)-6,7-dihydro-1H-imidazo[4,5-c]pyridin-5(4H)-yl)(5-(1-methyl-1H-pyrazol-4-yl)-1,3,4-oxadiazol-2-yl)methanone], for which the AC50 lay within 1 to 5 µM. For `Cn1cc(-c2nnc(C(=O)N3CCc4[nH]cnc4[C@H]3c3nc4c(F)cc(F)cc4o3)o2)cn1` [Example 522, (S)-(4-(4,6-difluorobenzo[d]oxazol-2-yl)-6,7-dihydro-1H-imidazo[4,5-c]pyridin-5(4H)-yl)(5-(1-methyl-1H-pyrazol-4-yl)-1,3,4-oxadiazol-2-yl)methanone], the AC50 lay in the range of 0.5 to 1 µM.

With `O=C(c1nnc(-c2ccccn2)o1)N1CCc2[nH]cnc2[C@H]1c1nc2c(F)cc(F)cc2o1` [Example 523, (S)-(4-(4,6-difluorobenzo[d]oxazol-2-yl)-6,7-dihydro-1H-imidazo[4,5-c]pyridin-5(4H)-yl)(5-(pyridin-2-yl)-1,3,4-oxadiazol-2-yl)methanone], the AC50 fell in the range of 0.5 to 1 µM.

`O=C(c1nnc(-c2ccccn2)o1)N1CCc2[nH]cnc2[C@@H]1c1nc2c(F)cc(F)cc2o1` [Example 524, (R)-(4-(4,6-difluorobenzo[d]oxazol-2-yl)-6,7-dihydro-1H-imidazo[4,5-c]pyridin-5(4H)-yl)(5-(pyridin-2-yl)-1,3,4-oxadiazol-2-yl)methanone]: the AC50 was in the range of 1 to 5 µM. For `O=C(c1oc(-c2ccncn2)nc1C(F)F)N1CCc2[nH]cnc2[C@@H]1c1nc2cc(F)ccc2o1` [Example 525, (R)-(4-(difluoromethyl)-2-(pyrimidin-4-yl)oxazol-5-yl)(4-(5-fluorobenzo[d]oxazol-2-yl)-6,7-dihydro-1H-imidazo[4,5-c]pyridin-5(4H)-yl)methanone], the concentration at half-maximal activity (AC50) was 1 to 5 µM. For the compound `O=C(c1oc(-c2ccncn2)nc1C(F)F)N1CCc2[nH]cnc2[C@H]1c1nc2cc(F)ccc2o1` [Example 526, (S)-(4-(difluoromethyl)-2-(pyrimidin-4-yl)oxazol-5-yl)(4-(5-fluorobenzo[d]oxazol-2-yl)-6,7-dihydro-1H-imidazo[4,5-c]pyridin-5(4H)-yl)methanone], the AC50 is no more than 0.5 µM. For the compound `O=C(c1oc(-c2cnccn2)nc1C(F)F)N1CCc2[nH]cnc2[C@H]1c1nc2cc(F)ccc2o1` [Example 527, (S)-(4-(difluoromethyl)-2-(pyrazin-2-yl)oxazol-5-yl)(4-(5-fluorobenzo[d]oxazol-2-yl)-6,7-dihydro-1H-imidazo[4,5-c]pyridin-5(4H)-yl)methanone], the AC50 was no more than 0.5 µM. Take `O=C(c1oc(-c2cnccn2)nc1C(F)F)N1CCc2[nH]cnc2[C@@H]1c1nc2cc(F)ccc2o1` [Example 528, (R)-(4-(difluoromethyl)-2-(pyrazin-2-yl)oxazol-5-yl)(4-(5-fluorobenzo[d]oxazol-2-yl)-6,7-dihydro-1H-imidazo[4,5-c]pyridin-5(4H)-yl)methanone]: the AC50 fell in the range of 1 to 5 µM.

In general, AC50 refers to the concentration at which the activity in the assay is half-maximal.
